Experiment [1] has as its target T1, human FLT3 (Homo sapiens, UniProt P36888).
T1 construct: a construct expressing the human FLT3 (564-993) with an amino terminal GST tag; host or cells: Sf9 insect cells (baculovirus)
T1 sequence (P36888 564-993): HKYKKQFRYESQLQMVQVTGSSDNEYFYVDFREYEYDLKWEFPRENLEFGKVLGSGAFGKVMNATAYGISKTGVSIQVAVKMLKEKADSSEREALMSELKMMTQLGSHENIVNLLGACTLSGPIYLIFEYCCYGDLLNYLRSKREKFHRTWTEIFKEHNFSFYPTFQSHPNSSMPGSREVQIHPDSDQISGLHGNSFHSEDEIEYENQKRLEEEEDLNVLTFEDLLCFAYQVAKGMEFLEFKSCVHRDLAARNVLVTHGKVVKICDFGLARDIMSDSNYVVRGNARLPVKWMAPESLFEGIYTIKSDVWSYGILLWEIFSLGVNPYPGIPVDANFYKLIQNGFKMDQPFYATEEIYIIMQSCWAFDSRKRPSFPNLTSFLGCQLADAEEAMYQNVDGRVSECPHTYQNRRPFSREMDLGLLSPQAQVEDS
The experiment is described as follows: FLT3 kinase assay (DELFIA enzyme inhibition). The class given is biochemical. In short, it runs like this:
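GST-tagged human FLT3 (564-993), expressed in sf9 cells, phosphorylated a biotinylated Gastrin Precursor (Tyr 87)-derived peptide for 30 min at room temperature before EDTA stop. The captured peptide was detected by Eu-labelled anti-phosphotyrosine DELFIA time-resolved fluorescence. IC50 was derived from % inhibition curves.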

Experiment [2] addresses T2, human Aurora A (Homo sapiens, UniProt O14965).
T2 construct: Histidine tag (N); host or cells: Sf9 insect cells (baculovirus)
T2 sequence (O14965 1-403): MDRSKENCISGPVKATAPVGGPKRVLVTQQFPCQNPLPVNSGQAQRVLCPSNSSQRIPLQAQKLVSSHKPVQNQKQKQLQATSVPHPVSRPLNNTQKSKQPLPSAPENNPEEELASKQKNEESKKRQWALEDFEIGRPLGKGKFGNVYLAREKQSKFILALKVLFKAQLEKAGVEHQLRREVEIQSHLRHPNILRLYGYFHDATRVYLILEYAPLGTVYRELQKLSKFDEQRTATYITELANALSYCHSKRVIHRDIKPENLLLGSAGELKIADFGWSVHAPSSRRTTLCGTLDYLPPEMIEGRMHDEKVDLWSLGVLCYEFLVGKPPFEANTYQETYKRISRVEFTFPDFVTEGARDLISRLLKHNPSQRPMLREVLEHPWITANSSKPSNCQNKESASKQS
Description: Aurora A kinase assay (DELFIA enzyme inhibition). The class given is biochemical. Particulars: read-out: Aurora A IC50. Summed up:
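DELFIA read-out (time-resolved Eu fluorescence, 620 nm emission) after Neutravidin capture of biotinylated peptide substrate and antibody detection. Reaction: Ni-agarose-purified Aurora A, 30 min at room temperature, stopped with 100 mM EDTA.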

Experiment [3] deals with HCT116 cells. Description: Anti-proliferative activity, Alamar Blue assay, HCT116. The format is cell-based. Particulars: Homo sapiens, HCT-116, 72 hours, read-out: cell proliferation IC50. Here is the method:
(§1) The anti-proliferative activities of compounds of the invention are determined by measuring the ability of the compounds to inhibition of cell growth in a number of cell lines. Inhibition of cell growth is measured using the Alamar Blue assay (Nociari et al., Journal of Immunological Methods (1998) 213, 157-167). The method is based on the ability of viable cells to reduce resazurin to its fluorescent product resorufin. For each proliferation assay cells are plated onto 96 well plates and allowed to recover for 16 hours prior to the addition of inhibitor compounds for a further 72 hours. At the end of the incubation period 10% (v/v) Alamar Blue is added and incubated for a further 6 hours prior to determination of fluorescent product at Excitation 535 nm and Emission 590 nm. In the case of the non-proliferating cell assay cells are maintained at confluence for 96 hour prior to the addition of inhibitor compounds for a further 72 hours. The number of viable cells is determined by Alamar Blue assay as before. All cell lines are obtained from ECACC (European Collection of cell Cultures).
For orientation: Alamar Blue is a resazurin reagent that responds to reducing activity.

Experiment [4] has as its target T3, human FLT4 (Homo sapiens, UniProt P35916).
T3 construct: a construct expressing the human FLT4 (789-1207) with an amino terminal GST tag; host or cells: Sf9 insect cells (baculovirus)
The experiment is described as follows: FLT4 kinase assay (DELFIA enzyme inhibition). To be noted: read-out: FLT4 IC50. The class given is biochemical. Summed up:
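GST-tagged human FLT4 (789-1207) from Sf9 cells phosphorylates a biotinylated MET (Tyr1253)-derived peptide for 30 min at room temperature, stopped with EDTA. Phosphopeptide is captured on Neutravidin and detected with Eu-labelled anti-phosphotyrosine antibody by time-resolved fluorescence; IC50 from % inhibition curves.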

Experiment [5] relates to A549 human lung carcinoma cells. Description: Anti-proliferative activity, Alamar Blue assay, A549. To be noted: A549, 72 h, read-out: cell growth IC50. The format is cell-based. Here is the method:
as §1

T3 sequence (P35916 789-1207): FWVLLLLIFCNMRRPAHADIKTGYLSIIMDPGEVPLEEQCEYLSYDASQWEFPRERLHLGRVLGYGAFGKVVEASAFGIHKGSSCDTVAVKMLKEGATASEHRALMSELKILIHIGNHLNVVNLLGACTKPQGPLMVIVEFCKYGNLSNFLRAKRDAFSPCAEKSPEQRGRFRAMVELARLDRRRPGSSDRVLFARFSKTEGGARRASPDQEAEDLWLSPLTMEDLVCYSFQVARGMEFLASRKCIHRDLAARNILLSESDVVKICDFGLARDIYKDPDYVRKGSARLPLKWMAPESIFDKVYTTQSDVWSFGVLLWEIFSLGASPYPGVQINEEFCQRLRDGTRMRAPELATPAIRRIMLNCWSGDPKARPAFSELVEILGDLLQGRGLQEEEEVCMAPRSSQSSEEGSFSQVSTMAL

Regarding `NC(=O)c1nc(-c2c(F)cccc2F)oc1-c1ccc(OCCN2CCOCC2)cc1` [Example F-13, 2-(2,6-difluorophenyl)-5-(4-(2-morpholinoethoxy)phenyl)oxazole-4-carboxamide], the IC50 in experiment [1], in experiment [2], in experiment [3] and in experiment [4] was under 10 µM in each case.
Take `CNC(=O)N1CCN(c2ccc(Nc3oc(-c4c(F)cccc4F)nc3C(N)=O)cc2)CC1` [Example J-3, 4-(4-(4-carbamoyl-2-(2,6-difluorophenyl)oxazol-5-ylamino)phenyl)-N-methylpiperazine-1-carboxamide]: the IC50 in experiment [1], in experiment [2], in experiment [3] and in experiment [4] was under 10 µM in each case.
Take `CN1CCN(c2ccc(Nc3oc(-c4c(F)cccc4F)nc3C(N)=O)cc2)CC1` [Example Q-7, 2-(2,6-difluorophenyl)-5-(4-(4-methylpiperazin-1-yl)phenylamino)oxazole-4-carboxamide]: the IC50 in experiment [1], in experiment [2], in experiment [3] and in experiment [4] was under 10 µM in each case.
As to `NC(=O)c1nc(-c2c(F)cccc2F)oc1Nc1ccc(OCCN2CCOCC2)cc1` [Example Q-8, 2-(2,6-difluorophenyl)-5-(4-(2-morpholinoethoxy)phenylamino)oxazole-4-carboxamide], the IC50 in experiment [1], in experiment [2], in experiment [3] and in experiment [4] was under 10 µM throughout.
For the molecule `CC(=O)N1CCN(c2ccc(Nc3oc(-c4c(F)cccc4F)nc3C(N)=O)cc2)CC1` [Example Q-9, 5-(4-(4-acetylpiperazin-1-yl)phenylamino)-2-(2,6-difluorophenyl)oxazole-4-carboxamide], the IC50 in experiment [1], in experiment [2], in experiment [3] and in experiment [4] was under 10 µM throughout.
On to `CN(C)S(=O)(=O)c1ccc(Nc2oc(-c3c(F)cccc3F)nc2C(N)=O)cc1` [Example Q-26, 2-(2,6-difluorophenyl)-5-(4-(N′,N′-dimethylsulfonamide)phenylamino)oxazole-4-carboxamide], for which the IC50 in experiment [1], in experiment [2], in experiment [5] and in experiment [4] was under 10 µM each time.
Turning to `COc1ccccc1Nc1nc(C(N)=O)c(-c2ccc(N3CCNCC3)cc2)o1` [Example R-11, 2-(2-methoxyphenylamino)-5-(4-(piperazin-1-yl)phenyl)oxazole-4-carboxamide], the IC50 in experiment [1], in experiment [2], in experiment [3] and in experiment [4] was under 10 µM in each case.
For `CC(C)(C)OC(=O)N1CCC(NC(=O)c2ccc(Nc3oc(-c4c(F)cccc4F)nc3C(N)=O)cc2)CC1` [Example U-20, tert-butyl 4-(4-(4-carbamoyl-2-(2,6-difluorophenyl)oxazol-5-ylamino)benzamido) piperidine-1-carboxylate], the IC50 was under 10 µM in experiment [1], under 100 µM in experiment [2] and under 10 µM in experiment [4].
Turning to `NC(=O)c1nc(-c2c(F)cccc2F)oc1Nc1ccc(C(=O)NC2CCNCC2)cc1` [Example U-21, 2-(2,6-difluorophenyl)-5-(4-(piperidin-4-ylcarbamoyl)phenylamino)oxazole-4-carboxamide], the IC50 in experiment [1], in experiment [2] and in experiment [4] was under 10 µM throughout.
For `CC(C)(C)OC(=O)NCC1CN(C(=O)c2ccc(Nc3oc(-c4c(F)cccc4F)nc3C(N)=O)cc2)CCO1` (stereo not shown) [Example U-22, tert-butyl (4-(4-(4-carbamoyl-2-(2,6-difluorophenyl)oxazol-5-ylamino)benzoyl)morpholin-2-yl)methylcarbamate], the IC50 in experiment [1], in experiment [2] and in experiment [4] was under 10 µM throughout.
In the case of `NCC1CN(C(=O)c2ccc(Nc3oc(-c4c(F)cccc4F)nc3C(N)=O)cc2)CCO1` (stereo not shown) [Example U-23, 5-(4-(2-(aminomethyl)morpholine-4-carbonyl)phenylamino)-2-(2,6-difluorophenyl) oxazole-4-carboxamide], the IC50 in experiment [1], in experiment [2] and in experiment [4] was under 10 µM throughout.
Take `CN1CCN(C(=O)c2ccc(Nc3oc(-c4c(F)cccc4F)nc3C(N)=O)cc2)CC1CCO` (stereo not shown) [Example U-24, 2-(2,6-difluorophenyl)-5-(4-(2-(2-hydroxyethyl)-1-methylpiperazine-4-carbonyl)phenylamino)oxazole-4-carboxamide]: the IC50 in experiment [1], in experiment [2] and in experiment [4] was under 10 µM each time.
For `CN1CCN(C(=O)c2ccc(Nc3oc(-c4c(F)cccc4F)nc3C(N)=O)cc2)CC1CO` (stereo not shown) [Example U-25, 2-(2,6-difluorophenyl)-5-(4-(2-(hydroxymethyl)-1-methylpiperazine-4-carbonyl)phenylamino)oxazole-4-carboxamide], the IC50 in experiment [1], in experiment [2] and in experiment [4] was under 10 µM throughout.
As to `CN1CCN(C(=O)c2ccc(Nc3oc(-c4c(F)cccc4F)nc3C(N)=O)cc2)[C@@H](CO)C1` [Example U-26, (R)-2-(2,6-difluorophenyl)-5-(4-(3-(hydroxymethyl)-1-methylpiperazine-4-carbonyl)phenylamino)oxazole-4-carboxamide], the IC50 in experiment [1], in experiment [2] and in experiment [4] was under 10 µM throughout.
As to `CN1CCN(C(=O)c2ccc(Nc3oc(-c4c(F)cccc4F)nc3C(N)=O)cc2)[C@H](CO)C1` [Example U-27, (S)-2-(2,6-difluorophenyl)-5-(4-(3-(hydroxymethyl)-1-methylpiperazine-4-carbonyl)phenylamino)oxazole-4-carboxamide], the IC50 in experiment [1], in experiment [2] and in experiment [4] was under 10 µM throughout.
Take `CN1CCN(C(=O)Nc2ccc(Nc3oc(-c4c(F)cccc4F)nc3C(N)=O)cc2)CC1` [Example V-2, N-(4-(4-carbamoyl-2-(2,6-difluorophenyl)oxazol-5-ylamino)phenyl)-4-methyl piperazine-1-carboxamide]: the IC50 in experiment [1], in experiment [2] and in experiment [4] was under 10 µM in each case.
Regarding `CNCCC(=O)Nc1ccc(Nc2oc(-c3c(F)cccc3F)nc2C(N)=O)cc1` [Example V-3, 2-(2,6-difluorophenyl)-5-(4-(3-(methylamino)propanamido)phenylamino)oxazole-4-carboxamide], the IC50 in experiment [1], in experiment [2] and in experiment [4] was under 10 µM throughout.
For `NC(=O)c1nc(-c2c(F)cccc2F)oc1Nc1ccc(NC(=O)C2CCCNC2)cc1` (stereo not shown) [Example V-4, N-(4-(4-carbamoyl-2-(2,6-difluorophenyl)oxazol-5-ylamino)phenyl)piperidine-3-carboxamide], the IC50 in experiment [1], in experiment [2] and in experiment [4] was under 10 µM each time.

These data come from patent US9187465B2, “Oxazole tyrosine kinase inhibitors” (Sareum Limited, priority 2007, dated 2015).
